Where two headings read alike, the source gives them in different places.
Tests used:
[1] = tested on: HEPG2 human cancer cell line; assay: MTT in vitro anticancer activity against HEPG2 cell line; assay type: cell-based; details: for IC50: Homo sapiens, read-out: IC50 HEPG2; for fold higher activity than erlotinib, HEPG2: versus erlotinib (10.6 μM)
Description: The MTT method of monitoring in vitro cytotoxicity was used with multiwell plates. The stock concentration of the entire synthesized compounds in DMSO was 10 mM, and this was used to prepare the working dilution. The final DMSO concentration used in the experiments was ≤ 0.5% as the working concentration. Human liver cancer cell lines (HepG2) were cultured according to the manufacturer's instructions. […] The cell viability was determined in each experiment using MTT (3-(4, 5-dimethylthiazol-2-yl)-2, 5-diphenyltetrazolium bromide) colorimetric assay. The optical density was measured with a microplate reader at 540 nm. The experiment was conducted in triplicate. Data were calculated as percent of cell viability.

[2] = biological target: EGFR (Homo sapiens, UniProt P00533); assay: EGFR kinase inhibitory assay (BPS Bioscience EGFR kinase assay kit)
[3] = biological target: VEGFR-2 (Homo sapiens, UniProt P35968); assay: VEGFR-2 kinase inhibitory assay (HTScan VEGF Receptor 2 kinase assay kit)
VEGFR-2, sequence (P35968 20-1356): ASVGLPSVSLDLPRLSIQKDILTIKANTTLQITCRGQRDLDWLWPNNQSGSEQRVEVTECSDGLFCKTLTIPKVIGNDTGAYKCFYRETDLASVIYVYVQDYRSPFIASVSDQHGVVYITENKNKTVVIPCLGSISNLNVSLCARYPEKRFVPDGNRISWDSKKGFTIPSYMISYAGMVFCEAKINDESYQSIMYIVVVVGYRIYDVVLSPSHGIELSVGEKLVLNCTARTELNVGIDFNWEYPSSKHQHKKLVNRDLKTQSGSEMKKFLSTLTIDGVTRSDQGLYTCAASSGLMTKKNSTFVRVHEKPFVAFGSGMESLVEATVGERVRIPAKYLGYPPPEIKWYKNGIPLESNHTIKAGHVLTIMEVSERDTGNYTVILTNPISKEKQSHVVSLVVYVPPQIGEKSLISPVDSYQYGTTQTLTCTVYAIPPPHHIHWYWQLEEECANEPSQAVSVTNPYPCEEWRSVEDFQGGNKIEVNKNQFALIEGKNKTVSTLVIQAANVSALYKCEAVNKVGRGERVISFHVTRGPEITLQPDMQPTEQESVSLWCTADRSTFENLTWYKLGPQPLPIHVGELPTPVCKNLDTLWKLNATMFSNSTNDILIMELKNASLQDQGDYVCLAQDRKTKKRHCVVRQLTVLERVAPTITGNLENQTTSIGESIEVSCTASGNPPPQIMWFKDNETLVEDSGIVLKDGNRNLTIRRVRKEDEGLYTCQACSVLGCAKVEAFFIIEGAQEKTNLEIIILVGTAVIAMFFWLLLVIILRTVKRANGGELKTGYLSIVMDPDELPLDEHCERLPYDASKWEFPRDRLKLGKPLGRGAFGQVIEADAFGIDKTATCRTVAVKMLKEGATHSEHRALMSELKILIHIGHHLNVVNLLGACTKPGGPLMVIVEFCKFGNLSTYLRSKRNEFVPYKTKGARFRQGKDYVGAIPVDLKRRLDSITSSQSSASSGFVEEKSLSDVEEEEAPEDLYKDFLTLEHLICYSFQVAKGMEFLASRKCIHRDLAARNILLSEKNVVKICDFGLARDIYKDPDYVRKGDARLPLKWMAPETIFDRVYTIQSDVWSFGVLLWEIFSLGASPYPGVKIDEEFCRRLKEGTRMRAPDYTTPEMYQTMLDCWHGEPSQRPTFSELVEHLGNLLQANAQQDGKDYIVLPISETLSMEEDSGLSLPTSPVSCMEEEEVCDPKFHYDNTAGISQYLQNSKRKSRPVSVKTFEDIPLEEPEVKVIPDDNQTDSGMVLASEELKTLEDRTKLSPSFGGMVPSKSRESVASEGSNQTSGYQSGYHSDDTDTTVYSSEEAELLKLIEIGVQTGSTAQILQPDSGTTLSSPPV

[4] = HepG2, MTT, 24 h treatment, mean of three experiments

EGFR, sequence (P00533 25-1210): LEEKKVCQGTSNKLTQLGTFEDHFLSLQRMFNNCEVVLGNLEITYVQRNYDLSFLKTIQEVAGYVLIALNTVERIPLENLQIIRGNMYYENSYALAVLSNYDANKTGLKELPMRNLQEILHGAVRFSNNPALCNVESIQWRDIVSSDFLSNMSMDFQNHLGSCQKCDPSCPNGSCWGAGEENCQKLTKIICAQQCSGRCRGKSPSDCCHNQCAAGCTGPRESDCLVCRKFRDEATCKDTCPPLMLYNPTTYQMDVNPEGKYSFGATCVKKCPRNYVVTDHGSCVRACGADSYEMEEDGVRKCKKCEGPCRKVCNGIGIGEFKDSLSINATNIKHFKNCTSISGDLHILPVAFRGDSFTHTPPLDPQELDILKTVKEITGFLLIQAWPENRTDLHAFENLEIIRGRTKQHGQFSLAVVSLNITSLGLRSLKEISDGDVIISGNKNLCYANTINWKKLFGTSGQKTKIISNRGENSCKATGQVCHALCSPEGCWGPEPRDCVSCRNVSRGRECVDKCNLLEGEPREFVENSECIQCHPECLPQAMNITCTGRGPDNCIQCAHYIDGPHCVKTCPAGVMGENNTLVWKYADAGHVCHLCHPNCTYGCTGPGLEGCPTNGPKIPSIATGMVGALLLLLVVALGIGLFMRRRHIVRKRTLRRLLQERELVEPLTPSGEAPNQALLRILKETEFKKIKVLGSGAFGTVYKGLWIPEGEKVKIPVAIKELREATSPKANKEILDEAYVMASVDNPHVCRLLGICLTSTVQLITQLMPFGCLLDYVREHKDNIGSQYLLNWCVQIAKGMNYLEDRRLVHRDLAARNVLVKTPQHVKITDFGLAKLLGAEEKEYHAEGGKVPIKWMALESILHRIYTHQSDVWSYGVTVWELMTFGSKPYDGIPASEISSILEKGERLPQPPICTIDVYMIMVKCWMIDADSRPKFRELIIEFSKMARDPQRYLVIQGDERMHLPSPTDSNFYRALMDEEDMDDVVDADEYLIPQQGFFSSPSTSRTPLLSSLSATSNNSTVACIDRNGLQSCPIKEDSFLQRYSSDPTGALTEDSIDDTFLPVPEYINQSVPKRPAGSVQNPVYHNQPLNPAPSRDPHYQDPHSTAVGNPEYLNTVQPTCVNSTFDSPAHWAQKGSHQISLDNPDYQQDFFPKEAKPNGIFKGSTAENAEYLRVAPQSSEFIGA

**Q.** Which IC50 [1, 4] does the source give for CNC(=O)c1cc(Oc2ccc(NC(=O)Nc3ccc(Cl)c(C(F)(F)F)c3)cc2)ccn1 [Sorafenib, sorafenib, reference compound] here?
**A.** The IC50 was 1060 nM.

**Q.** With Cc1n[nH]c2c1C(c1ccccc1Br)c1c(nc[nH]c1=O)O2 (centres unmarked) [Compound 5, 4-(2-Bromophenyl)-3-methyl-4,6-dihydropyrazolo [4′,3′:5,6]pyrano[2,3-d]pyrimidin-5(1H)-one] as the compound, how does the IC50 [2] read?
**A.** Its IC50 is 150 nM.

**Q.** And the melting point?
**A.** Its melting point is 205 °C.

**Q.** What about the IC50 [3] of the same compound?
**A.** The IC50 was 1120 nM.

**Q.** What about the IC50 [1, 4] of the same compound?
**A.** Its IC50 is 8710 nM.

**Q.** Which results are given for Cc1n[nH]c2oc(=O)c(C#N)c(-c3ccccc3Br)c12 [Compound 15, 4-(2-Bromophenyl)-3-methyl-6-oxo-1,6-dihydropyrano[2,3-c]pyrazole-5-carbonitrile]?
**A.** IC50 [2]: 190 nM; melting point: > 360 °C; IC50 [3]: 370 nM; IC50 [1, 4]: 370 nM; fold higher activity than erlotinib, HEPG2 [1]: ~10 fold

**Q.** Which IC50 [2] does the source give for CC1=NNC(=O)/C1=C/c1ccccc1Br [Compound 11, (E)-4-(2-Bromobenzylidene)-5-methyl-2,4-dihydro-3H-pyrazol-3-one] here?
**A.** Its IC50 is 300 nM.

**Q.** What about the melting point of the same compound?
**A.** The melting point was 210 °C.

**Q.** And the IC50 [3]?
**A.** The IC50 was 270 nM.

**Q.** And the IC50 [1, 4]?
**A.** Its IC50 is 630 nM.

**Q.** What about the “fold higher activity than erlotinib, HEPG2” value [1] of the same compound?
**A.** The value was ~10 fold.

**Q.** Which results are given for CC1=NNC2=NC(=O)NC(c3ccccc3Br)C12 (centres unmarked) [Compound 12, 4-(2-bromophenyl)-3-methyl-1,3a, 4,5-tetrahydro-6h-pyrazolo [3,4-d]pyrimidin-6-one]?
**A.** IC50 [2]: 90 nM; melting point: 205 °C; IC50 [3]: 230 nM; IC50 [1, 4]: 710 nM; fold higher activity than erlotinib, HEPG2 [1]: ~10 fold

**Q.** What does the source list for Cc1n[nH]c2c1C(c1ccccc1Br)C(C#N)=C(NC(=S)Nc1ccccc1)O2 (centres unmarked) [Compound 8, 1-(4-(2-Bromophenyl)-5-cyano-3-methyl-1,4-dihydropyrano[2,3-c]pyrazol-6-yl)-3-phenylthiourea]?
**A.** IC50 [2]: 230 nM; IC50 [3]: 460 nM; IC50 [1, 4]: 380 nM

**Q.** For Cc1n[nH]c2c1C(c1ccccc1Br)c1c(N)ncnc1O2 (centres unmarked) [Compound 6, 4-(2-Bromophenyl)-3-methyl-1,4-dihydropyrazolo[4′,3′:5,6]pyrano[2,3-d]pyrimidin-5-amine], which IC50 [2] is on record?
**A.** The IC50 was 250 nM.

**Q.** And the melting point?
**A.** Its melting point is 320 °C.

**Q.** And the IC50 [3]?
**A.** Its IC50 is 1100 nM.

**Q.** And the IC50 [1, 4]?
**A.** Its IC50 is 15700 nM.

**Q.** Which IC50 [2] does the source give for CC1=NNC2=NC(=S)NC(c3ccccc3Br)C12 (centres unmarked) [Compound 13, 4-(2-Bromophenyl)-3-methyl-1,3a,4,5-tetrahydro-6H-pyrazolo[3,4-d]pyrimidine-6-thione] here?
**A.** Its IC50 is 120 nM.

**Q.** And the melting point?
**A.** Its melting point is 170 °C.

**Q.** What about the IC50 [3] of the same compound?
**A.** Its IC50 is 750 nM.

**Q.** What about the IC50 [1, 4] of the same compound?
**A.** The IC50 was 1810 nM.

**Q.** With Cc1n[nH]c2c1C(c1ccccc1Br)c1c(ncn(N)c1=N)O2 (centres unmarked) [Compound 3, 4-(2-Bromophenyl)-5-imino-3-methyl-1,4-dihydropyrazolo[4′,3′:5,6]pyrano[2,3-d]pyrimidin-6(5H)-amine] as the compound, how does the IC50 [2] read?
**A.** The IC50 was 60 nM.

**Q.** And the melting point?
**A.** The melting point was 120 to 122 °C.

**Q.** And the IC50 [3]?
**A.** Its IC50 is 850 nM.

**Q.** What about the IC50 [1, 4] of the same compound?
**A.** Its IC50 is 4070 nM.

**Q.** Which results are given for Cc1n[nH]c2c1C(c1ccccc1Br)C(C#N)=C(NC(=O)CC#N)O2 (centres unmarked) [Compound 7, N-(4-(2-Bromophenyl)-5-cyano-3-methyl-1,4-dihydropyrano[2,3-c]pyrazol-6-yl)-2-cyanoacetamide]?
**A.** IC50 [2]: 250 nM; melting point: > 360 °C; IC50 [3]: 1450 nM; IC50 [1, 4]: 1840 nM

**Q.** Which IC50 [2] does the source give for Cc1ccc(S(=O)(=O)NC2=C(C#N)C(c3ccccc3Br)c3c(C)n[nH]c3O2)cc1 (centres unmarked) [Compound 9, N-(4-(2-Bromophenyl)-5-cyano-3-methyl-1,4-dihydropyrano[2,3-c]pyrazol-6-yl)-4-methyl-benzenesulfonamide] here?
**A.** The IC50 was 160 nM.

**Q.** What about the melting point of the same compound?
**A.** Its melting point is 193 to 195 °C.

**Q.** What about the IC50 [3] of the same compound?
**A.** Its IC50 is 220 nM.

**Q.** What about the IC50 [1, 4] of the same compound?
**A.** Its IC50 is 2300 nM.

**Q.** With C#Cc1cccc(Nc2ncnc3cc(OCCOC)c(OCCOC)cc23)c1 [Erlotinib, erlotinib, reference compound] as the compound, how does the IC50 ([1]; HepG2, 24 h) read?
**A.** Its IC50 is 10600 nM.

**Q.** What does the source list for Cc1nc2c(c(=O)[nH]1)C(c1ccccc1Br)c1c(C)n[nH]c1O2 (centres unmarked) [Compound 4, 4-(2-Bromophenyl)-3,7-dimethyl-4,6-dihydropyrazolo[4′,3′:5,6]pyrano[2,3-d]pyrimidin-5(1H)-one]?
**A.** IC50 [2]: 130 nM; melting point: 115 °C; IC50 [3]: 360 nM; IC50 [1, 4]: 310 nM; fold higher activity than erlotinib, HEPG2 [1]: ~10 fold

**Q.** For Cc1n[nH]c2c1C(c1ccccc1Br)C(C#N)=C(N)O2 (centres unmarked) [Compound 1, 6-amino-4-(2-bromophenyl)-3-methyl-1,4-dihydropyrano[2,3-c]pyrazole-5-carbonitrile], which IC50 [2] is on record?
**A.** Its IC50 is 140 nM.

**Q.** What about the IC50 [3] of the same compound?
**A.** The IC50 was 11400 nM.

**Q.** And the IC50 [1, 4]?
**A.** The IC50 was 420 nM.

**Q.** What about the “fold higher activity than erlotinib, HEPG2” value [1] of the same compound?
**A.** Its value is ~10 fold.

**Q.** What does the source list for CCOC=NC1=C(C#N)C(c2ccccc2Br)c2c(C)n[nH]c2O1 (centres unmarked) [Compound 2, Ethyl(E)-N-(4-(2-bromophenyl)-5-cyano-3-methyl-1,4-dihydropyrano[2,3-cpyrazol-6-yl)formimidate]?
**A.** IC50 [2]: 490 nM; melting point: 158 to 160 °C; IC50 [3]: 2120 nM; IC50 [1, 4]: 350 nM; fold higher activity than erlotinib, HEPG2 [1]: ~10 fold

**Q.** Which IC50 [2] does the source give for CC1=NNC2=NNC(c3ccccc3Br)C12 (centres unmarked) [Compound 14, 4-(2-Bromophenyl)-3-methyl-1,3a,4,5-tetrahydropyrazolo[3,4-c]pyrazole] here?
**A.** The IC50 was 110 nM.

**Q.** And the melting point?
**A.** The melting point was 140 °C.

**Q.** And the IC50 [3]?
**A.** The IC50 was 2870 nM.

**Q.** And the IC50 [1, 4]?
**A.** The IC50 was 6640 nM.
